Results on 7 compounds are retold here after patent US9232796B2, “Herbicidal compositions comprising 4-amino-3-chloro-5-fluoro-6-(4-chloro-2-fluoro-3-methoxyphenyl) pyridine-2-carboxylic acid or a derivative thereof and acetyl-CoA carboxylase (ACCase) inhibitors” (DOW AGROSCIENCES LLC, priority 2012, dated 2016).

Structures are written as SMILES.

One test deals with IPOHE. The experiment in a line: Example V (second) postemergence foliar-applied ternary mixtures, greenhouse, direct seeded rice weeds. In kind it is in vivo, Ipomoea hederacea Jacq. The method, then: The treated plants and control plants were placed in a greenhouse as described above and watered by sub-irrigation to prevent wash-off of the test compounds. After approximately 3 weeks, the condition of the test plants as compared with that of the untreated plants was determined visually and scored on a scale of 0 to 100 percent where 0 corresponds to no injury or growth inhibition and 100 corresponds to complete kill.
Colby's equation was used to determine the herbicidal effects expected from the mixtures (Colby, S. R. 1967. Calculation of the synergistic and antagonistic response of herbicide combinations. Weeds 15:20-22.).
The following equation was used to calculate the expected activity of mixtures containing three active ingredients, A, B, and C: Expected=A+B+C−((A×B+A×C+B×C)/100)+(A×B×C/10000)

In a further test the test system is CYPIR. Kind of test: Example I postemergence foliar-applied, greenhouse, direct seeded rice weeds. The class given is in vivo, Cyperus iria L. The text has this:
Seeds or nutlets of the desired test plant species were planted in a soil matrix prepared by mixing a loam or sandy loam soil (e.g., 28.6 percent silt, 18.8 percent clay, and 52.6 percent sand, with a pH of about 5.8 and an organic matter content of about 1.8 percent) and calcareous grit in an 80 to 20 ratio. The soil matrix was contained in plastic pots with a volume of 1 quart and a surface area of 83.6 square centimeters (cm^2). When required to ensure good germination and healthy plants, a fungicide treatment and/or other chemical or physical treatment was applied. The plants were grown for 8-22 days in a greenhouse with an approximate 14 hr. photoperiod which was maintained at about 29° C. during the day and 26° C. during the night. Nutrients (Peters Excel® 15-5-15 5-Ca 2-Mg and iron chelate) were applied in the irrigation solution as needed and water was added on a regular basis. Supplemental lighting was provided with overhead metal halide 1000-Watt lamps as necessary. The plants were employed for testing when they reached the first through fourth true leaf stage.
Treatments consisted of the acid or esters of 4-amino-3-chloro-5-fluoro-6-(4-chloro-2-fluoro-3-methoxy-phenyl)pyridine-2-carboxylic acid (Compound A), each formulated as an SC (suspension concentrate), and various herbicidal components alone and in combination.
Other herbicidal components were applied on an acid equivalent (ae) or active ingredient (ai) basis and included acetyl coA carboxylase (ACCase)-inhibiting herbicides (cyclohexanedione and aryloxyphenoxypropionate chemical classes) cyhalofop-butyl formulated as Clincher® SF (285 gr ai/L EC), diclofop-methyl formulated as Hoelon® 3EC, fenoxaprop-p-ethyl+isoxadifen-ethyl formulated as RiceStar® HT (0.58 lb./gal EC), fenoxaprop-p-ethyl+mefenpyr diethyl formulated as Puma® IEC, metamifop formulated as Metamifop EC, haloxyfop-methyl formulated as Gallant Super®, fluazifop-p-butyl formulated as Fusilade® DX, quizalofop-p-ethyl formulated as Assure® II, profoxydim formulated as Aura® 20EC, clethodim applied as Intensity®, sethoxydim formulated as Poast®, and tralkoxydim formulated as Achieve®.
(§1) Treatment requirements were calculated based upon the rates being tested, the concentration of active ingredient or acid equivalent in the formulation, and a 12 mL application volume at a rate of 187 L/ha.
For treatments comprised of formulated compounds, measured amounts of compounds were placed individually in 25 mL glass vials and diluted in a volume of 1.25% (v/v) Agri-Dex® crop oil concentrated to obtain 12× stock solutions. […] Application solutions were prepared by adding an appropriate amount of each stock solution (e.g., 1 mL) and diluted to the appropriate final concentrations with the addition of 10 mL of an aqueous mixture of 1.25% (v/v) crop oil concentrate so that the final spray solutions contained 1.25+/−0.05% (v/v) crop oil concentrate.
All stock solutions and applications solutions were visually inspected for compound compatibility prior to application. Spray solutions were applied to the plant material with an overhead Mandel track sprayer equipped with a 8002E nozzles calibrated to deliver 187 L/ha over an application area of 0.503 m^2 at a spray height of 18 to 20 inches (46 to 50 cm) above average plant canopy height. Control plants were sprayed in the same manner with the solvent blank.
The treated plants and control plants were placed in a greenhouse as described above and watered by sub-irrigation to prevent wash-off of the test compounds. After approximately 3 weeks, the condition of the test plants as compared with that of the untreated plants was determined visually and scored on a scale of 0 to 100 percent where 0 corresponds to no injury or growth inhibition and 100 corresponds to complete kill. […]

The test system of another test is CYPRO. Kind of test: Example VI in-water applied ternary mixtures, greenhouse, transplanted paddy rice weeds. In kind it is in vivo, Cyperus rotundus L. Conditions: 21 DAA. As to the method:
(§2) Weed seeds or nutlets of the desired test plant species were planted in puddled soil (mud) prepared by mixing a shredded, non-sterilized mineral soil (50.5 percent silt, 25.5 percent clay, and 24 percent sand, with a pH of about 7.6 and an organic matter content of about 2.9 percent) and water at a 1:1 volumetric ratio. The prepared mud was dispensed in 365 mL aliquots into 16-ounce (oz.) non-perforated plastic pots with a surface area of 86.59 square centimeters (cm^2) leaving a headspace of 3 centimeters (cm) in each pot. Mud was allowed to dry overnight prior to planting or transplanting. Rice seeds were planted in Sun Gro MetroMix® 306 planting mixture, which typically has a pH of 6.0 to 6.8 and an organic matter content of about 30 percent, in plastic plug trays. Seedlings at the second or third leaf stage of growth were transplanted into 860 mL of mud contained in 32-oz. non-perforated plastic pots with a surface area of 86.59 cm^2 4 days prior to herbicide application. The paddy was created by filling the headspace of the pots with 2.5 to 3 cm of water. When required to ensure good germination and healthy plants, a fungicide treatment and/or other chemical or physical treatment was applied. The plants were grown for 4-22 days in a greenhouse with an approximate 14 hr. photoperiod which was maintained at about 29° C. during the day and 26° C. during the night. Nutrients were added as Osmocote® (19:6:12, N:P:K+minor nutrients) at 2 g per 16-oz. pot and 4 g per 32-oz. pot. Water was added on a regular basis to maintain the paddy flood, and supplemental lighting was provided with overhead metal halide 1000-Watt lamps as necessary. The plants were employed for testing when they reached the first through fourth true leaf stage.
(§3) Treatments consisted of the benzyl ester of 4-amino-3-chloro-5-fluoro-6-(4-chloro-2-fluoro-3-methoxy-phenyl)pyridine-2-carboxylic acid (Compound A), formulated as an SC (suspension concentrate), an ACCase inhibitor herbicide, and a third herbicidal component, each applied alone and in ternary combination. Forms of compound A were applied on an acid equivalent basis.
(§4) The ACCase inhibitor component was applied on an active ingredient basis and included cyhalofop-R-butyl formulated as Clincher® G and metamifop formulated as Metamifop EC. Other herbicidal components were applied on an active ingredient or acid equivalent basis depending on the compound and included penoxsulam formulated as Grasp® SC, bentazon sodium formulated as Basagran®, triclopyr […] (TEA) salt formulated as Grandstand® R, benzobicyclon formulated as Benzobicyclon, benfuresate formulated as Full Slot® WG, pyraclonil formulated as Pyraclon® Flowable, mefenacet (technical grade material), and pretilachlor (technical grade material).
(§5) Treatment requirements for each compound or herbicidal component were calculated based upon the rates being tested, the concentration of active ingredient or acid equivalent in the formulation, an application volume of 1 mL per component per pot, and an application area of 86.59 cm^2 per pot.
(§6) For formulated compounds, a measured amount was placed in an individual 100 or 200 mL glass vial and was dissolved in a volume of 1.25% (v/v) Agri-Dex® crop oil concentrate to obtain application solutions.
(§7) For technical grade compounds, a weighed amount was placed in an individual 100 to 200 mL glass vial and was dissolved in a volume of acetone to obtain concentrated stock solutions.
(§8) Applications were made by injecting with a pipetter appropriate amounts of the application solutions, into the aqueous layer of the paddy. Control plants were treated in the same manner with the solvent blank. Applications were made so that all treated plant material received the same concentrations of acetone and crop oil concentrate.
(§9) The treated plants and control plants were placed in a greenhouse as described above and water was added as needed to maintain a paddy flood. […]

Test [1] has as its system ECHCG. The description is as above. In kind it is in vivo, Echinochloa crus-galli (L.) Beauv. As to the method: as §2, §3, §4, §5, §6, §7, §8, §9
In test [2] the test system is ECHCG. The experiment in a line: Example V (second) postemergence foliar-applied ternary mixtures, greenhouse, direct seeded rice weeds. In kind it is in vivo, Echinochloa crus-galli (L.) Beauv. As to conditions: 200 gai/ha.
From the text: Seeds or nutlets of the desired test plant species were planted in a soil matrix prepared by mixing a sandy loam or loam soil (e.g., 32 percent silt, 23 percent clay, and 45 percent sand, with a pH of about 6.5 and an organic matter content of about 1.9 percent) and calcareous grit in an 80 to 20 ratio. The soil matrix was contained in plastic pots with a volume of 1 quart and a surface area of 83.6 square centimeters (cm^2). When required to ensure good germination and healthy plants, a fungicide treatment and/or other chemical or physical treatment was applied. The plants were grown for 8-22 days in a greenhouse with an approximate 14 hr. photoperiod which was maintained at about 29° C. during the day and 26° C. during the night. Nutrients (Peters Excel® 15-5-15 5-Ca 2-Mg and iron chelate) were applied in the irrigation solution as needed and water was added on a regular basis. Supplemental lighting was provided with overhead metal halide 1000-Watt lamps as necessary. The plants were employed for testing when they reached the first through fourth true leaf stage.
Treatments consisted of the benzyl ester of 4-amino-3-chloro-5-fluoro-6-(4-chloro-2-fluoro-3-methoxy-phenyl)pyridine-2-carboxylic acid (Compound A), formulated as an SC (suspension concentrate), an ACCase inhibitor, and a third herbicidal component, each applied alone and in ternary combination. Forms of compound A were applied on an acid equivalent basis.
The ACCase inhibitor component was applied on an active ingredient basis and included cyhalofop-R-butyl formulated as Clincher® SF, fenoxaprop-p-ethyl formulated as RiceStar® HT, and profoxydim formulated as Aura® 20EC. Other herbicidal components were applied on an active ingredient or acid equivalent basis depending on the compound and included penoxsulam formulated as Grasp® SC, bentazon sodium formulated as Basagran®, triclopyr […] (TEA) salt formulated as Grandstand® R, bispyribac sodium formulated as Regiment® 80WP, imazamox ammonium formulated as Beyond®, benzobicyclon, quinclorac formulated as Facet® 75DF, glyphosate dimethylammonium (DMA) salt formulated as Durango® DMA, glufosinate ammonium formulated as Ignite® 280, fentrazamide formulated as an emulsifiable concentrate (EC), propyrisulfuron formulated as Zeta One®, and indanofan (technical grade material).
as §1
For treatments comprised of formulated compounds, measured amounts of compounds were placed individually in 25 mL glass vials and diluted in a volume of 1.25% (v/v) Agri-Dex® crop oil concentrate to obtain 12× stock solutions. […] Application solutions were prepared by adding an appropriate amount of each stock solution (e.g., 1 mL) and diluted to the appropriate final concentrations with the addition of 9 mL of an aqueous mixture of 1.25% (v/v) crop oil concentrate so that the final spray solutions contained 1.25% (v/v) crop oil concentrate.
As required, additional water and/or 97:3 v/v acetone/DMSO was added to individual application solutions so that the final acetone and DMSO concentrations of the application solutions being compared were 8.1% and 0.25%, respectively.
All stock solutions and applications solutions were visually inspected for compound compatibility prior to application. Spray solutions were applied to the plant material with an overhead Mandel track sprayer equipped with a 8002E nozzles calibrated to deliver 187 L/ha over an application area of 0.503 m^2 at a spray height of 18 inches (46 cm) above average plant canopy height. Control plants were sprayed in the same manner with the solvent blank.
The treated plants and control plants were placed in a greenhouse as described above and watered by sub-irrigation to prevent wash-off of the test compounds. […]

The test system of another test is FIMMI. Kind of test: Example VI in-water applied ternary mixtures, greenhouse, transplanted paddy rice weeds. The class given is in vivo, Fimbristylis miliacea (L.) Vahl. As to the method: as §2, §3, §4, §5, §6, §7, §8, §9

Regarding `CC(C)N1C(=O)c2ccccc2NS1(=O)=O` [Bentazon sodium], the “Visual Weed Control (%) - 21 DAA IPOHE Obs” value with IPOHE (420 gae/ha, lower sub-table) worked out at 75%; in the test on IPOHE (420 gae/ha, upper sub-table) it was 53%.
Turning to `COC(=O)C(C)Oc1ccc(Oc2ccc(Cl)cc2Cl)cc1` (stereo not shown) [Diclofop-methyl, methyl 2-[4-(2,4-dichlorophenoxy)phenoxy]propanoate], the “Visual Weed Control (%) - 22 DAA CYPIR Obs” value in the test with CYPIR (280 gai/ha), in the test on CYPIR (560 gai/ha) and in the test on CYPIR (1120 gai/ha) was 0% in each case.
Consider `CCCOCCN(C(=O)CCl)c1c(CC)cccc1CC` [Pretilachlor], for which the “Visual Weed Control (%) - 21 DAA CYPRO Obs” value was 0% in the test with CYPRO (Table 70, 25 gai/ha) and 0% with CYPRO (Table 70, 50 gai/ha).
Take `CN(C(=O)COc1nc2ccccc2s1)c1ccccc1` [Mefenacet]: the “Visual Weed Control (%) - 21 DAA CYPRO Obs” value with CYPRO (Table 69, 75 gai/ha) was determined as 0%; with CYPRO (Table 69, 150 gai/ha), 0%.
For `CCS(=O)(=O)Oc1ccc2c(c1)C(C)(C)CO2` [Benfuresate], in the test on ECHCG [1] (150 gai/ha), the “Visual Weed Control (%) - 21 DAA ECHCG Obs” value came out at 0%.
Regarding `CS(=O)(=O)c1ccc(C(=O)C2=C(Sc3ccccc3)C3CCC(C3)C2=O)c(Cl)c1` (stereo not shown) [Benzobicyclon], the “Visual Weed Control (%) - 21 DAA IPOHE Obs” value with IPOHE (200 gai/ha) amounted to 55%. Further, in the test on ECHCG [2], the “Visual Weed Control (%) - 21 DAA ECHCG Obs” value stood at 0%.
Consider `CC(C)N1C(=O)c2ccccc2NS1(=O)=O` [Bentazon Sodium], for which the “Visual Weed Control (%) - 21 DAA ECHCG Obs” value was determined as 0% in the test with ECHCG [1] (210 gae/ha, first set) and 15% in the test with ECHCG [1] (420 gae/ha, second set). The “Visual Weed Control (%) - 21 DAA FIMMI Obs” value in the test on FIMMI (210 gae/ha, first set) came out at 17%; in the test on FIMMI (420 gae/ha, second set), 30%.
